Test results taken from PMC4306942, “Asperlones A and B, Dinaphthalenone Derivatives from a Mangrove Endophytic Fungus Aspergillus sp. 16-5C” (Marine Drugs, 2015).

Tests used:
[1] = biological target: T1, Mycobacterium tuberculosis protein tyrosine phosphatase B (MptpB) (Mycobacterium tuberculosis, UniProt I6WXK4); experiment: MptpB inhibition assay (RediPlate 96 EnzChek Tyrosine Phosphatase Assay kit, DiFMUP hydrolysis); format: biochemical; details: for IC50: fluorogenic substrate DiFMUP, average of three independent experiments, read-out: IC50 against MptpB; for inhibitory activity against MptpB (in words): bioassay summary in conclusions
T1 construct: The full-length PTPB gene was amplified from genomic DNA of the Mtb H37Rv strain; His6 (N); made in house; host or cells: Escherichia coli BL21(DH3) (so in the source)
T1 sequence (I6WXK4 whole entry, looked up): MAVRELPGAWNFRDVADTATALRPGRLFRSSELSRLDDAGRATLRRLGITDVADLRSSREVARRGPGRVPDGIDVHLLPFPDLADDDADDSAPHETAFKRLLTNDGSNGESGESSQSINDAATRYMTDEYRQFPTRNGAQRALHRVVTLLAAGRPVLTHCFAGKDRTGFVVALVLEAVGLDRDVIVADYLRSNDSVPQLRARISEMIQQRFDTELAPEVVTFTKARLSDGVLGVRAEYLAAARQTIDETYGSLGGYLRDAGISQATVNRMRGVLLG

Compound | IC50 [1] [µM] | inhibitory activity against MptpB (in words) [1] | melting point [°C]
O=C1C2=C3C(=CC(=O)c4c(O)cccc43)OC2(O)Cc2cc(O)cc(O)c21 (racemic) [Compound 1, (±)-asperlone A] | 4.24 ± 0.41 | strong inhibitory activity | –
O=C1C2=C3C(=CC(=O)c4c(O)cc(O)cc43)OC2(O)Cc2cc(O)cc(O)c21 (racemic) [Compound 2, (±)-asperlone B] | 4.32 ± 0.6 | strong inhibitory activity | –
Cc1c(O)c(O)cc(O)c1C(=O)O[C@]1(C)C(=O)C=C2C=C(C=CC(=O)O)OC=C2C1=O [Compound 3, 6″-hydroxy-(R)-mitorubrinic acid] | > 50 | – | > 300
Cc1cc(O)cc(O)c1C(=O)O[C@]1(C)C(=O)C=C2C=C(/C=C/C(=O)O)OC=C2C1=O [Compound 5, (−)-mitorubrinic acid] | > 50 | – | –
C/C=C/C1=CC2=CC(=O)[C@@](C)(OC(=O)c3c(C)cc(O)cc3O)C(=O)C2=CO1 [Compound 6, (−)-mitorubrin] | 3.99 ± 0.34 | strong inhibitory activity | –
[Na+].[Na+].[Na+].[O]=[V]([O-])([O-])[O-] [Positive Control, sodium orthovanadate, reference compound] | 0.05 | – | –
